Measured values published in publication PMC3724985, “Isolation, biochemical characterization, and cloning of a bacteriocin from the poultry-associated Staphylococcus aureus strain CH-91” (Applied Microbiology and Biotechnology, 2012).

Test system: StpC
Experiment: Residual proteolytic activity of culture media with E-64 (Hide Powder Azure)
Type: biochemical
Details: E-64 at 0.01, 0.1 and 1.0 mM in S. aureus CH-91 culture (TSB, 37 °C), 0.1 M Tris–HCl pH 7.5, 5 mM cysteine, 5 mM EDTA
Experimental: S. aureus CH-91 was cultured at 37 °C in TSB supplemented with the cysteine peptidase inhibitor E-64 (1-[N-[(L-3-trans-carboxyoxirane-2-carbonyl)-L-leucyl] amino]-4-guanidinobutane; Sigma) at final concentrations of 1.0, 0.1, and 0.01 mM. Aliquots were removed at 5, 10, and 24 h, and the bacteria-free supernatants were obtained by centrifugation.
The residual proteolytic activity of collected culture media was determined at 37 °C using Hide Powder Azure (Calbiochem) in 0.1 M Tris–HCl (pH 7.5) supplemented with 5 mM cysteine and 5 mM EDTA.

## CC(C)C[C@H](NC(=O)[C@H]1O[C@@H]1C(=O)O)C(=O)NCCCCNC(=N)N (relative stereo) [E-64, 1-[N-[(L-3-trans-carboxyoxirane-2-carbonyl)-L-leucyl]amino]-4-guanidinobutane]
  residual proteolytic activity in culture media containing the inhibitor: No residual proteolytic activity was detected
